In the METLIN SMRT retention time set (Domingo-Almenara et al. 2019) one finds RP-LC retention time data, which are given here for 79 compounds.

Each structure is given as a SMILES string.

This series is described as follows: gradient 5% acetonitrile 3 min, to 50% in 2 min, to 85% in 15 min, held 3 min, 100 µL/min. Particulars: column: Zorbax Extend-C18 2.1 x 50 mm; eluents: water / acetonitrile, 0.1% formic acid. The essentials: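 Data were gathered over 3 months by HPLC coupled to a quadrupole time-of-flight mass spectrometer, operated in positive and negative ionization mode. Mixtures of ~100 pure standards ran on a Zorbax Extend-C18 column (2.1 × 50 mm, 1.8 μm) at 100 μL/min, with water and acetonitrile each containing 0.1% formic acid and dead and dwell volumes of 40 μL and 900 μL. Retention time was read from adduct peaks picked by computer and checked manually.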
In the case of `COc1ccc(-c2nc(-c3nnn(-c4ccc(F)cc4)c3C)no2)cc1OC`, the RP-LC retention time amounted to 917 s. To `COc1ccc(N2C(=O)C3N=NN(Cc4nc(-c5ccc6c(c5)OCO6)no4)C3C2=O)cc1OC` (centres undefined) belongs 834 s.

`Cc1sc2ccn(Cc3ccc(F)cc3)c(=O)c2c1C(=O)NCCN1CCCC1`: the RP-LC retention time worked out at 662 s. Under `N#Cc1cc(-c2ccccc2)[nH]c1-c1nccc2ccccc12` stands 981 s. To `COc1ccc(Cl)cc1NC(=O)CSc1ccc2nnc(-c3cccc(F)c3)n2n1` belongs 802 s; to `CCn1c(N2CCCC(C(=O)N3CCN(Cc4ccc5c(c4)OCO5)CC3)C2)cc(=O)n(C)c1=O` (centres undefined), 616 s; to `CCOC(=O)c1c(C)[nH]c(CCC(=O)NCCN2CCCCC2)c1C`, 607 s.

As for `NS(=O)(=O)c1ccc(NC(=O)CSc2ccc3ccccc3n2)cc1`, the RP-LC retention time is 736 s. As to `CC(=O)N1CCc2cc(S(=O)(=O)C(C)CC(=O)N3CCN(c4ccccc4F)CC3)ccc21` (centres undefined), the RP-LC retention time stood at 826 s. Under `CCc1ccc(-c2cc(C(F)(F)F)on2)cc1S(=O)(=O)Nc1ccc(S(N)(=O)=O)cc1` stands 947 s; under `Cc1ccc(CNC(=O)c2nnc(-c3oc4c(C)cccc4c3C)o2)o1`, 1140 s. In turn, `O=C(Nc1ccc(-c2nnc3n2CCCC3)cc1)c1ccc(Cl)cc1` had an RP-LC retention time of 724 s. For `COc1cc(-c2nc3ccc(C)cn3c2Nc2ccc(C)cc2)ccc1O`, the RP-LC retention time was determined as 661 s. Under `COc1ccc(-c2noc(-c3ccc(N4CCN(Cc5ccc6c(c5)OCO6)CC4)nc3)n2)cc1` stands 785 s; under `CCOC(=O)c1ccc(N2C=C(C(=O)OC)S(=O)(=O)c3ccc(F)cc32)cc1`, 933 s; under `O=C1NC(C(=O)NCc2cccs2)Cn2cccc21` (centres undefined), 620 s. Under `COc1ccc(C2CCCN2C(=O)c2cnn3cccnc23)cc1` (centres undefined) stands 694 s. Under `O=C(CCNS(=O)(=O)c1ccc(Cl)cc1)N1CCN(c2ccccn2)CC1` stands 609 s; under `O=c1[nH][nH]c2nnc(-c3c(-c4ccccc4)nn4ccccc34)cc12`, 679 s. For `COc1cc(Cl)c(NC(=O)C2CCCN(c3nccnc3Sc3ccc(C)cc3)C2)c(OC)c1` (centres undefined), the RP-LC retention time came out at 1260 s. On to `O=C1[C@H]2CN(Cc3ccc(Cl)c(F)c3)C[C@H]2C(=O)N1CCc1ccccc1`, for which the RP-LC retention time turned out to be 901 s. `CCC(C)NC(=O)c1nc(CCS(=O)(=O)c2ccccc2)no1` (centres undefined) had an RP-LC retention time of 771 s. The compound `O=C(c1ccoc1)N1CCc2c(c(CO)nn2Cc2ccccc2)C1` came in with an RP-LC retention time of 659 s. On to `CCC(c1cccs1)N1C(=O)[C@H]2CN(S(=O)(=O)c3cccc(F)c3)C[C@H]2C1=O` (some centres undefined), for which the RP-LC retention time is 972 s.

`O=C(c1ccccc1Cl)N1CCN(S(=O)(=O)c2cc3c4c(c2)CCC(=O)N4CCC3)CC1`: the RP-LC retention time was 796 s. Consider `O=C(c1ccc(SCCN2CCCCC2)nc1)N1CCN(c2ncccn2)CC1`, for which the RP-LC retention time was determined as 605 s.

For the compound `CCOc1ccccc1CNS(=O)(=O)c1ccc2c(c1)CCCC(=O)N2`, the RP-LC retention time is 761 s.

Take `CCn1ccc2sc(C)c(C(=O)NCc3ccc(OC)c(OC)c3)c2c1=O`: the RP-LC retention time is 716 s. `CCOc1cccc(CNC(=O)c2nc(N3CCSCC3)c3cnn(C)c3n2)c1` gave an RP-LC retention time of 854 s. As to `COCCNC(=O)C1CCCN(c2nccnc2Sc2ccccc2)C1` (centres undefined), the RP-LC retention time was found to be 810 s. To `Cc1c2cnn(CC(=O)NCCN(C)C)c(=O)c2c(C)n1Cc1ccccc1Cl` belongs 655 s. Under `COCC(=O)N(C1CCOCC1)C1CCN(C(=O)Cc2ccc(Cl)cc2)CC1` stands 618 s. To `CCCn1nc(CNC(=O)Cc2ccsc2)c2ccccc21` belongs 847 s; to `O=C1NCCCn2cc(S(=O)(=O)N3CCN(c4ccccc4F)CC3)cc21`, 742 s. Turning to `Cn1c(CNC(=O)C2CCC2)nc2c1CN(S(=O)(=O)Cc1ccc(Cl)cc1)CC2`, the RP-LC retention time turned out to be 586 s.

With `O=C(CCCc1ccccc1)N1CCCC1c1nc(-c2ccccc2Cl)no1` (centres undefined), the RP-LC retention time was 1140 s. Under `O=C(OCc1cc(-c2ccccc2)on1)c1ccc[nH]c1=O` stands 656 s; under `O=c1n(Cc2cccc(F)c2)nc2c(S(=O)(=O)N3CCN(c4ccc(F)cc4)CC3)cccn12`, 967 s.

Take `Cc1ccccc1-c1noc(CSc2nc3cc4c(cc3c(=O)n2Cc2ccccc2)OCO4)n1`: the RP-LC retention time is 1300 s. `COc1ccc2cc(C(=O)N3CCC(CC(=O)NCCc4c[nH]c5ccc(Cl)cc45)CC3)[nH]c2c1` showed an RP-LC retention time of 841 s.

In turn, `Cc1cc(OCC(=O)Nc2ccc(C#N)cc2)nc(-c2ccc(F)cc2)n1` showed an RP-LC retention time of 976 s. In turn, `CCOC(=O)c1c(C)[nH]c(C(=O)N2CCCC(C(=O)NCCN3CCCC3)C2)c1C` (centres undefined) returned an RP-LC retention time of 603 s. Under `CCCCNC(=O)CN1C(=O)CCn2nc(-c3cn(C)c4ccccc34)cc21` stands 771 s; under `Cc1cc(NC(=O)CSc2ccc3nnc(-c4cccs4)n3n2)no1`, 620 s. In turn, `Cc1ccc(CSc2ncnc3nc[nH]c23)cc1` showed an RP-LC retention time of 774 s. Under `CCOC(=O)N1CCN(c2ncc(C(=O)Nc3ccc(OCC)cc3)c(N)n2)CC1` stands 718 s. Compound `CC(C)c1ccc(N2C(=O)CN(Cc3ccccc3)C3CS(=O)(=O)CC32)cc1` (centres undefined) had an RP-LC retention time of 854 s. `O=C(NC1CCCC1)C1(CCO)CCN(Cc2ccccc2)C1` (centres undefined) came in with an RP-LC retention time of 609 s. Under `Cc1cccc(NC(=O)/C=C/c2ccc([N+](=O)[O-])cc2)c1` stands 878 s. `COc1ccc(C)cc1NC(=O)NCCn1c(C(F)(F)F)nc2cccnc21` registered an RP-LC retention time of 807 s. Turning to `COc1ccc(Cl)cc1NC(=O)NCCc1cn(CC(C)C)c2ncccc12`, the RP-LC retention time came out at 980 s. In the case of `CCc1nc2cc(N3CCCC(C(=O)NCCN4CCOCC4)C3)cnc2nc1CC` (centres undefined), the RP-LC retention time was determined as 594 s. To `CCCn1cc(C(=O)NCCN2CCOCC2)c2cccnc21` belongs 586 s; to `Cc1nn(-c2ccc(-c3ccccc3)nn2)c(C)c1S(=O)(=O)N1CCCCC1`, 1090 s; to `COc1ccc(-c2noc(-c3ccc(NCCCN4CCC(C)CC4)nc3)n2)cc1`, 666 s. Regarding `COc1cccc(S(=O)(=O)N2CCC(n3c(C)cnc3C3CC3)C2)c1` (centres undefined), the RP-LC retention time stood at 587 s.

As to `Cc1ccc(C(O)CN2CCN(c3ccccc3)CC2)c(C)c1` (centres undefined), the RP-LC retention time was found to be 703 s. To `CS(=O)(=O)N1CCC(CNC(=O)C(=O)Nc2ccon2)CC1` belongs 609 s. Under `C=CCn1c(C)c(CC(=O)NC(C)CC)c(=O)n2nc(-c3ccccc3)nc12` (centres undefined) stands 818 s; under `CN(CCc1ccc(Cl)c(Cl)c1)[C@@H]1CCCC[C@@H]1N1CCCC1`, 956 s; under `COCc1cc2nn(CC(=O)Nc3cccc(C)c3)c(=O)n2c(-c2ccccc2)n1`, 905 s. Take `O=C(NCc1ccc(Br)cc1)C1CCCN(c2nccnc2Oc2ccccc2)C1` (centres undefined): the RP-LC retention time was 1050 s. In the case of `CCNc1cc(N2CCCC(CCC(=O)N(C)Cc3cn(C)nc3C)C2)ncn1` (centres undefined), the RP-LC retention time stood at 598 s. To `CC(C)(Oc1ccc(Cl)cc1)C(=O)Nc1ccc(-c2cn3cccnc3n2)cc1` belongs 794 s; to `Cc1nc(-c2ccc(OC3CCN(C(=O)NCC(C)C)C3)cc2)no1` (centres undefined), 809 s; to `O=C(Cn1ncc2c(c1=O)N(C1CC1)C(=O)CS2)N1CCCc2ccccc21`, 745 s. As for `Cc1ccc(-c2noc(CN3C(=O)COc4ccc(C(C)(C)C)cc43)n2)cc1C`, the RP-LC retention time came out at 1390 s. Under `O=C(COc1ccccc1)N1CC(n2cc(COCC3CC3)nn2)C1` stands 717 s. Under `O=C(Cc1ccc(Cl)cc1)N1CC(Cc2nncn2CC2CC2)C1` stands 686 s; under `Cc1noc(-c2cccc(OC3CN(C(=O)Nc4ccccc4)C3)c2)n1`, 844 s; under `O=C(c1cn(-c2cc(-c3nc(C4CC4)no3)ccn2)cn1)N1CCSCC1`, 833 s. `CC(C)CC(=O)N1CCc2cc(CNS(=O)(=O)c3ccc4c(c3)CC(=O)N4C)ccc21` yielded an RP-LC retention time of 793 s.

In the case of `CCc1ccccc1NC(=O)c1cn(CC2CCCO2)cc2c(=O)n(-c3ccccc3)nc1-2` (centres undefined), the RP-LC retention time turned out to be 1060 s.

The compound `CCN1c2cc(F)ccc2C(=O)NC12CCN(C(=O)c1ccc(OC)cc1)CC2` yielded an RP-LC retention time of 780 s. To `Cc1ccc(CN2CCN(CC(=O)NCc3cccnc3)C(=O)C2=O)cc1` belongs 859 s; to `CC1Oc2ccc(S(=O)(=O)N3CCC(C(=O)Nc4ccc(Cl)cc4)CC3)cc2NC1=O` (centres undefined), 778 s; to `CCCN1CCN(C(=O)C2CCN(S(=O)(=O)c3ccc4c(c3)NC(=O)CO4)CC2)CC1`, 586 s. `C=CCNC(=O)c1cn(-c2cc(-c3nc(C)no3)ccn2)cn1` showed an RP-LC retention time of 711 s. Consider `O=C(c1cc(-c2ccccn2)n[nH]1)N1CCN(C(=O)C2CCCCC2)CC1`, for which the RP-LC retention time turned out to be 659 s.
